The source of these data is publication PMC10518255, “A first-in-class pan-lysyl oxidase inhibitor impairs stromal remodeling and enhances gemcitabine response and survival in pancreatic cancer” (Nature Cancer, 2023).

Values joined by “and” are separate entries in the source; they are usually repeats but may differ in a detail not shown here. Identical values can stand only once.

In one assay the target is T1, SSAO (Homo sapiens, UniProt Q16853).
T1 sequence (Q16853 1-763): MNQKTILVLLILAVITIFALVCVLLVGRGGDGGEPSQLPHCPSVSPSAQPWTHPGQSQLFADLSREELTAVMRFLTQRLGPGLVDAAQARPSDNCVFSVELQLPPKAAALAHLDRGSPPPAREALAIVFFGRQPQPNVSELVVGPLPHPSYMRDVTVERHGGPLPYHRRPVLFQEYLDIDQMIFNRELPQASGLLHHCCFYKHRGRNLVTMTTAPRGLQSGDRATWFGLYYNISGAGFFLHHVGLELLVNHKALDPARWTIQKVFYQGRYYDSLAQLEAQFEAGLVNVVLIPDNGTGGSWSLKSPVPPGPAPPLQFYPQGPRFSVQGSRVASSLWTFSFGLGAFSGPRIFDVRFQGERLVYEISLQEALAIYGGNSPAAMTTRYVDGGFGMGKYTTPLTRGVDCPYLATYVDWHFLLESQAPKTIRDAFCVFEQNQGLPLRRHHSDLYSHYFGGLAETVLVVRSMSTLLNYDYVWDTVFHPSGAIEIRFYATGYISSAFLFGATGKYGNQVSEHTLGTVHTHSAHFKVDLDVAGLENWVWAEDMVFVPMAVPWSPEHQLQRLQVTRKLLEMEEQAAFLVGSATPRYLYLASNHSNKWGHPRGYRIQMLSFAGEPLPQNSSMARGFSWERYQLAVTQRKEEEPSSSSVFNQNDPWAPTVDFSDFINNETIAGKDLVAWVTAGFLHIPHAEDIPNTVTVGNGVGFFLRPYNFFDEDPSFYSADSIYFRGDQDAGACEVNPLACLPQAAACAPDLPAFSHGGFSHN
The assay can be described thus: Substrate turnover by H2O2 release, amplex red coupled fluorometric activity assay (Extended Data Fig. 3a). Type of assay: biochemical. The source says: (§1) Specifically, BAPN is oxidized by diamine oxidase (DAO) and semicarbazide-sensitive amine oxidase (SSAO)/vascular adhesion protein 1 (VAP-1) in the vasculature (Extended Data Fig. 3a), which releases hydrogen […] (H2O2) and aldehyde in humans leading to toxicity.
(§2) Data presented as mean values +/− SD. f. […] Data presented as mean values +/− SD. […] Data presented as mean values +/− SD. […] Data presented as mean values +/− SD. Ordinary one-way ANOVA for multiple comparison test performed. Source data

For another assay, the target named is T2, DAO (Homo sapiens, UniProt P19801).
T2 sequence (P19801 20-751): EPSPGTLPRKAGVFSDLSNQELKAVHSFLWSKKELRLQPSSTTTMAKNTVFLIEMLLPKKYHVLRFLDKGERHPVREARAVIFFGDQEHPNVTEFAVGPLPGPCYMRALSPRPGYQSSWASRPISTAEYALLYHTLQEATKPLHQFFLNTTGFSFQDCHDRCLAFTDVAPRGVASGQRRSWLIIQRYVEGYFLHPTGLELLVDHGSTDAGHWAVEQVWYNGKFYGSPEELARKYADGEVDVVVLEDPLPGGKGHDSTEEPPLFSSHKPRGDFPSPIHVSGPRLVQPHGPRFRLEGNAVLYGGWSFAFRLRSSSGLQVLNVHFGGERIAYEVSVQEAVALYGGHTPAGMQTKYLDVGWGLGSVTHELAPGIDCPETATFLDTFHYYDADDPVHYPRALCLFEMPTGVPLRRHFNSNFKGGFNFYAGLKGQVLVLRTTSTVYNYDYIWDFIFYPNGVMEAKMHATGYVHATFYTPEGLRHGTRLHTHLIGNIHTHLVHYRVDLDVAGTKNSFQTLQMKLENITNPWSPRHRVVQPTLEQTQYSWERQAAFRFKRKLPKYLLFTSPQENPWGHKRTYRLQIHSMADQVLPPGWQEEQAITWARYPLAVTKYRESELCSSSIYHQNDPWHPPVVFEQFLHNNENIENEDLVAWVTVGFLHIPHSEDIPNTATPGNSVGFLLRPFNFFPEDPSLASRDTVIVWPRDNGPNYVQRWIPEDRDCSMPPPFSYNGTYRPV
The description is as above. Type of assay: biochemical.
From the text: as §1, §2

Assay [1] concerns collagen crosslinks (DHLNL, Pyr) in KPC CAF organotypic matrices. In words: Collagen crosslink quantification by LC-MS in organotypic matrices. Type of assay: cell-based, mouse. How it is done:
Fig. 3 PXS-5505 inhibition of CAF remodeling in vitro. a, Quantitative PCR with reverse transcription (qRT–PCR) showing in vitro comparison of KPC CAF relative expression of lysyl oxidase family members compared to KPC CCs from the same model (n = 3 biologically independent samples). Comparisons were determined by 2^–∆∆Ct approach. b, Representative images of 3D organotypic matrix contraction assay at days 2, 6 and 12 in the absence (gray) or presence (pink) of PXS-5505 (30 µM). Scale bars, 5 mm. Comparison of measured area of matrices between control and PXS-5505 treatment groups over time (n = 3 technical samples examined over three biologically independent samples). Data are mean ± s.d. c, Concentration of immature divalent DHLNL and mature trivalent Pyr collagen crosslinks determined by LC–MS from control and PXS-5505-treated organotypic matrices at day 12 ([…]). Data are mean ± s.d. […] Data are presented as mean ± s.d. […] Comparison of number of CCs invaded per field of view (FOV) as determined by H&E and PanCK staining (nine images taken from three technical samples from each of three biologically independent contracted matrices), normalized to control. Data are mean ± s.d. Scale bars, 100 μm. […] Source data
KPC CAFs embedded in 3D organotypic matrices remodel and crosslink them.
Collagen matrices were freeze dried and reduced with NaBH4. The resulting pellet was hydrolyzed with 6 mol l^−1 HCl at 100 °C for 24 h. An automated solid phase extraction system (Gilson GX-271 ASPECA system) was used to extract hydroxyproline and crosslinks from the hydrolysate. The samples were analyzed for hydroxyproline crosslinks by a UHPLC–ESI–MS/MS on a Thermo Dionex UPHPLC and TSQ Endura triple quadmass spectrometer as previously published. The lower limit of detection was 0.013 pmol 10 µl^−1.

Setting [2] is: listed as value 30 (unit not given).
Where [3] appears, read: listed as value 60 (unit not given).
The mark [4] stands for this setting: listed as value 300 (unit not given).
Where [5] appears, read: LC/MS, organotypic matrices at day 12, single replicates (3 biological x 2 technical).
Where [6] appears, read: day 12, normalized to total collagen content.

Consider `Cl.Cl.NC/C=C(\F)CS(=O)(=O)c1cccc2cccnc12.O` [PXS-5505, (Z)-3-fluoro-4-(quinolin-8-ylsulfonyl)but-2-en-1-amine dihydrochloride monohydrate], for which the “processing as a substrate by SSAO/VAP-1” value on SSAO was “not processed as a substrate”. For the same molecule, the “Turnover by SSAO as measured by H2O2 release, mean” value worked out at 1.019 at SSAO (setting [2]), 1.0116 on SSAO (setting [3]) and 1.1921 at SSAO (setting [4]). The “processing as a substrate by DAO” value on DAO is listed as “not processed as a substrate”. In addition, the “Turnover by DAO as measured by H2O2 release, mean” value on DAO (setting [2]) worked out at 0.9677; on DAO (setting [3]) it was 0.9315; on DAO (setting [4]) it was 1.1475. Also, the “Concentration of immature divalent dihyroxylysinonorleucine (DHLNL) collagen cross-links” value in assay [1] (setting [5]) is 2.81 pmol/mL and 3.555 pmol/mL and 2.615 pmol/mL and 4.105 pmol/mL and 3.075 pmol/mL and 4.4 pmol/mL. Moreover, in assay [1] (setting [5]), the “Concentration of mature trivalent hydroxylysylpyridinoline (Pyr, PYD) collagen cross-links” value was 4.5 pmol/mL and 5.52 pmol/mL and 3.85 pmol/mL and 8.4 pmol/mL and 6.325 pmol/mL and 6.2 pmol/mL. In addition, the “immature divalent DHLNL collagen crosslinks” value in assay [1] (setting [6]) is recorded as “decreases”. Also, in assay [1] (setting [6]), the “mature trivalent Pyr collagen crosslinks” value is on record as “decreases”.
